Assay results from patent US10517889B2, “Modulators of SMAD7 expression” (Ionis Pharmaceuticals, Inc., priority 2017, dated 2019).
Strand notation (5' to 3'): a small letter for the sugar, then the base; units joined by * are phosphorothioate-linked, units joined directly phosphodiester-linked; [ ] holds rarer units or linkages, { } end groups; capitals alone tell only the bases. k = constrained ethyl (cEt); [5mC] = 5-methylcytosine; d = 2'-deoxy (DNA)

The substances below were run on human SMAD7 mRNA (assay: Antisense inhibition of human SMAD7 mRNA expression in Hep3B cells by 3-10-3 cEt gapmers, 10,000 nM, electroporation (Example 2)). Details: Hep3B cells, 10,000 nM antisense oligonucleotide, electroporation, approximately 24 hours, RT-PCR primer probe set RTS5062, relative to untreated control cells.
Format: cell-based
In short: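 SMAD7 mRNA was measured by real-time PCR (RTS5062) with RiboGreen total-RNA normalization, about 24 h after 10,000 nM gapmer was delivered by electroporation into Hep3B cells at 20,000 per well. Gapmers were 16-mer 3-10-3 cEt, fully phosphorothioate; values are % inhibition versus untreated controls.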

Substance	% Inhibition [%]
799872 (kA*kA*kG*dT*dT*dA*dA*dT*d[5mC]*dA*dT*dT*dA*k[5mC]*kT*kT; antisense) [compound 799872]	0
790531 (kT*kG*k[5mC]*dT*dG*dA*dT*dG*dA*dA*d[5mC]*dT*dG*kG*k[5mC]*kG; antisense) [compound 790531]	8
800097 (antisense kG*k[5mC]*k[5mC]*dT*d[5mC]*dA*dA*dA*dA*dA*dG*d[5mC]*d[5mC]*kT*k[5mC]*kA) [compound 800097]	1
799973 (kA*kT*kA*dA*dT*dT*d[5mC]*dA*d[5mC]*dA*dA*dG*dG*kA*k[5mC]*k[5mC]; antisense) [compound 799973]	0
800054 (antisense kG*k[5mC]*kT*dA*d[5mC]*dA*d[5mC]*d[5mC]*dA*dA*dA*dG*dA*k[5mC]*k[5mC]*kT) [compound 800054]	62
799917 (antisense kT*kG*kG*dA*dG*dA*dA*dT*dG*dT*dA*dA*dT*kT*kG*kA) [compound 799917]	17
800093 (antisense kT*kT*kG*dA*dA*dG*dG*d[5mC]*d[5mC]*dA*dG*d[5mC]*dT*k[5mC]*k[5mC]*kT) [compound 800093]	48

Same assay, conditions: Hep3B cells, electroporation with 10,000 nM antisense oligonucleotide, approximately 24 hours, RTS5062, percent inhibition of SMAD7 mRNA relative to untreated control cells

Substance	% Inhibition [%]
799610 (kG*kG*kG*dA*dG*dA*dA*dA*d[5mC]*dT*d[5mC]*d[5mC]*dT*k[5mC]*kA*kG; antisense) [compound 799610]	45
799802 (k[5mC]*k[5mC]*kA*dG*dA*d[5mC]*dA*dG*dG*d[5mC]*d[5mC]*dA*dG*kG*kG*k[5mC]; antisense) [compound 799802]	20
799548 (k[5mC]*kT*k[5mC]*d[5mC]*dT*dA*d[5mC]*dT*dG*dT*dT*dG*dG*k[5mC]*kA*kG; antisense) [compound 799548]	39
799749 (antisense kT*kG*k[5mC]*dT*dT*dG*dG*d[5mC]*d[5mC]*dT*dT*dA*d[5mC]*k[5mC]*kA*kT) [compound 799749]	17
799825 (antisense kG*kA*k[5mC]*dT*dT*dG*dG*d[5mC]*dA*dG*d[5mC]*d[5mC]*dA*kA*kG*k[5mC]) [compound 799825]	0

Same assay, conditions: Hep3B cells, electroporation with 10,000 nM antisense oligonucleotide, approximately 24 hours, SMAD7 mRNA by RT-PCR (RTS5062), relative to untreated control cells

Substance	% Inhibition [%]
830139 (antisense kT*kG*kG*dA*dG*dT*dT*dG*d[5mC]*dA*dT*dG*d[5mC]*k[5mC]*kT*kT) [compound 830139]	45
799473 (antisense kT*kA*kT*d[5mC]*d[5mC]*d[5mC]*dA*dT*dG*dG*d[5mC]*dT*d[5mC]*kT*k[5mC]*kA) [compound 799473]	63
830183 (antisense k[5mC]*kG*kG*dT*dT*dG*d[5mC]*d[5mC]*dT*d[5mC]*dA*dT*d[5mC]*k[5mC]*kT*kG) [compound 830183]	47
798902 (kT*kG*kA*d[5mC]*d[5mC]*dT*d[5mC]*dT*dA*dG*d[5mC]*d[5mC]*dA*kG*k[5mC]*kA; antisense) [compound 798902]	54
830072 (kA*kT*k[5mC]*dA*dA*dA*dG*dG*dT*dA*dA*dG*d[5mC]*k[5mC]*kA*kG; antisense) [compound 830072]	28
798847 (kT*kT*kG*d[5mC]*dT*d[5mC]*d[5mC]*dG*d[5mC]*dA*d[5mC]*d[5mC]*dT*kT*k[5mC]*kT; antisense) [compound 798847]	24
830057 (k[5mC]*kG*kT*dT*dT*dT*dG*dG*dG*dT*dG*dA*dG*kT*kA*kA; antisense) [compound 830057]	42
830145 (antisense kT*kG*kG*dG*dT*dG*dT*dG*d[5mC]*dA*d[5mC]*d[5mC]*dA*kG*kG*kT) [compound 830145]	47
799965 (antisense k[5mC]*kT*k[5mC]*d[5mC]*dA*dG*dT*dG*dA*dA*dG*dT*dG*kA*kG*kA) [compound 799965]	0
830164 (antisense kG*k[5mC]*kT*dG*d[5mC]*dT*dT*dG*dG*d[5mC]*d[5mC]*dT*dT*kA*k[5mC]*k[5mC]) [compound 830164]	38
830161 (antisense kA*kG*kG*dT*dG*dA*dA*dA*dG*dT*dT*dA*dT*k[5mC]*kA*k[5mC]) [compound 830161]	13
830070 (kA*kA*kA*dG*dG*dT*dA*dA*dG*d[5mC]*d[5mC]*dA*dG*k[5mC]*kT*k[5mC]; antisense) [compound 830070]	44
830158 (antisense kA*kA*kT*dT*dG*dA*dG*dA*dA*d[5mC]*dT*dG*dT*kG*k[5mC]*k[5mC]) [compound 830158]	43

Same assay, conditions: Hep3B cells, electroporation with 10,000 nM antisense oligonucleotide, approximately 24 hours, primer probe set RTS5062, relative to untreated control cells

Substance	% inhibition of SMAD7 mRNA expression [%]	% Inhibition [%]
799125 (antisense kT*k[5mC]*k[5mC]*d[5mC]*d[5mC]*dG*d[5mC]*dT*dT*dG*d[5mC]*dT*dG*kG*k[5mC]*k[5mC]) [compound 799125]	62	
798786 (kA*k[5mC]*kT*d[5mC]*dT*dA*dG*dT*dT*d[5mC]*dG*d[5mC]*dA*kG*kA*kG; antisense) [compound 798786]	11	
799022 (kG*kG*kG*dA*d[5mC]*dT*dG*d[5mC]*dA*dA*dA*d[5mC]*d[5mC]*kT*k[5mC]*kT; antisense) [compound 799022]		61
799324 (antisense kT*k[5mC]*k[5mC]*d[5mC]*dA*dG*dG*dA*dG*dG*dG*dT*dA*kT*kG*k[5mC]) [compound 799324]	6	
798977 (antisense kT*kG*k[5mC]*dT*dT*dG*dG*dA*dT*dT*dT*d[5mC]*dT*kG*k[5mC]*kT) [compound 798977]		43
799178 (antisense kA*kG*k[5mC]*dT*dT*dA*dT*dG*dT*dT*dA*dA*dA*kG*kT*k[5mC]) [compound 799178]		34
799102 (antisense k[5mC]*kG*kG*dG*dA*dA*dA*dA*dA*d[5mC]*d[5mC]*dT*dG*kA*kT*kG) [compound 799102]		34
790621 (kG*kT*kG*d[5mC]*dA*dT*d[5mC]*dT*dT*dT*dT*d[5mC]*dT*kT*kT*kA; antisense) [compound 790621]	0	
798951 (antisense kT*k[5mC]*kT*d[5mC]*dA*dA*dA*dG*dA*dG*d[5mC]*dG*dA*kA*kA*k[5mC]) [compound 798951]	37	
799219 (kT*kG*kG*d[5mC]*dA*dT*dT*dT*dG*dT*dT*dA*dT*kT*kT*kG; antisense) [compound 799219]		0

Same assay, conditions: Hep3B cells, electroporation, 10,000 nM antisense oligonucleotide, approximately 24 hours, RTS5062, relative to untreated control cells

Substance	% inhibition of SMAD7 mRNA expression [%]
799287 (antisense kT*k[5mC]*kT*dG*d[5mC]*dT*d[5mC]*dA*dG*dG*d[5mC]*dT*dT*k[5mC]*kA*k[5mC]) [compound 799287]	15
799814 (antisense k[5mC]*k[5mC]*kT*d[5mC]*dA*d[5mC]*dT*dT*dA*dG*d[5mC]*d[5mC]*dT*kG*k[5mC]*kA) [compound 799814]	0
799521 (antisense kT*kA*kA*dA*dG*dA*d[5mC]*dA*dG*dG*dT*dT*dT*k[5mC]*k[5mC]*k[5mC]) [compound 799521]	57
799620 (kT*kA*kA*d[5mC]*dG*dA*d[5mC]*d[5mC]*dA*dG*dG*d[5mC]*d[5mC]*kT*kG*kT; antisense) [compound 799620]	31

Same assay, conditions: Hep3B cells, electroporation, 10,000 nM, approximately 24 hours; 3-10-3 cEt gapmers targeting SEQ ID NO: 3 and 4

Substance	% inhibition of SMAD7 mRNA expression [%]
799240 (kA*kT*k[5mC]*dT*dG*dG*dA*d[5mC]*dA*dG*dT*d[5mC]*dA*kG*kT*kT; antisense) [compound 799240]	45

Same assay, conditions: SMAD7 mRNA, Hep3B cells, 10,000 nM antisense oligonucleotide, electroporation, approximately 24 hours, primer probe set RTS5062, relative to untreated control cells

Substance	% Inhibition [%]
829788 (kT*k[5mC]*k[5mC]*dG*dA*dG*dG*dA*dA*dT*dG*d[5mC]*d[5mC]*kT*kG*kA; antisense) [compound 829788]	41
772611 (kT*k[5mC]*k[5mC]*dG*dA*dG*dG*d[5mC]*dA*dA*dA*dA*dG*k[5mC]*k[5mC]*kA; antisense) [compound 772611]	14
829747 (antisense kT*k[5mC]*kG*d[5mC]*d[5mC]*dG*d[5mC]*d[5mC]*dG*dG*dG*d[5mC]*dG*k[5mC]*kA*k[5mC]) [compound 829747]	16
801128 (antisense kA*kG*kT*dA*dT*d[5mC]*d[5mC]*dA*dT*d[5mC]*dA*dA*d[5mC]*kT*kG*k[5mC]) [compound 801128]	48
772567 (antisense kG*kA*k[5mC]*dT*dT*d[5mC]*d[5mC]*dG*dA*dG*dG*dA*dA*kT*kG*k[5mC]) [compound 772567]	58
829769 (antisense k[5mC]*kA*kG*d[5mC]*dA*dG*dG*dA*dG*dG*d[5mC]*dA*d[5mC]*kG*k[5mC]*kG) [compound 829769]	46
772929 (k[5mC]*kG*kG*dA*dA*dG*dT*d[5mC]*dT*dT*dG*dT*dA*kT*kT*kT; antisense) [compound 772929]	37

Same assay, conditions: SMAD7 mRNA, Hep3B cells, electroporation with 10,000 nM antisense oligonucleotide, approximately 24 hours, primer probe set RTS5062, relative to untreated control cells

Substance	% Inhibition [%]
829809 (kG*kG*kG*dA*dG*dA*d[5mC]*dT*d[5mC]*dT*dA*dG*dT*kT*k[5mC]*kG; antisense) [compound 829809]	51
829960 (kA*kT*kT*dA*dT*dT*dA*dA*dT*dG*dG*dT*d[5mC]*kT*kG*k[5mC]; antisense) [compound 829960]	17
829863 (antisense kA*k[5mC]*kT*dG*d[5mC]*dT*dG*d[5mC]*dG*dG*dT*dT*dG*kT*kA*k[5mC]) [compound 829863]	31
